Results taken from ChEMBL document CHEMBL1629412, “Cyclic peptide inhibitors of HIV-1 integrase derived from the LEDGF/p75 protein” (Bioorg Med Chem, 2010).
Active and inactive are the calls of the source. No cut-off for these calls is given here. Numbered stars: 1 amine (or outer) side, 2 acyl side, 3 side chain; on linkers, the order of the positions; unused ones are H or OH. Bridge positions count the residues as written; N and C are the ends. Square brackets hold non-standard residues; d marks the D form. Peptide text beside a SMILES is read from it. X2 = O=C(c1ccccc1-c1c2ccc(=O)cc-2oc2cc(O)ccc12)N(CCC(=O)[*:1])C(=O)[*:2]; X1 = O=C(c1ccccc1-c1c2ccc(=O)cc-2oc2cc(O)ccc12)N(CC(=O)[*:1])C(=O)[*:2]; N(6-aminohexyl)Gly = O=C(CN(CCCCCCN[*:3])[*:1])[*:2]; NGly(3-aminopropyl) = O=C(CN(CCCN[*:3])[*:1])[*:2]; N(2-Aminoethyl)Gly = O=C(CN(CCN[*:3])[*:1])[*:2]; Nlys = NCCCCNCC(=O)O

How the values were obtained:
[1] = target: Human immunodeficiency virus type 1 integrase (Human immunodeficiency virus 1) (UniProt Q7ZJM1); assay: Inhibition of HIV-1 Integrase at 1:50 protein/compound molar ratio; details: concentration not given here
[2] = target: Human immunodeficiency virus type 1 integrase (Human immunodeficiency virus 1) (UniProt Q7ZJM1); assay: Binding affinity to HIV-1 Integrase by FRET assay
[3] = system: Human immunodeficiency virus 1; assay: Antiviral activity against HIV1 infected in human MAGI cells assessed as Tat-mediated reporter gene expression; assay type: functional, organism-based
[4] = Chemical stability of the compound in presence of trypsin and chymotrypsin mixture at 1 mM after 150 mins by MALDI-TOF MS; assay type: physicochemical; details: isolated protein, 2.5 h, 1000 µM
[5] = Chemical stability of the compound in presence of trypsin and chymotrypsin mixture at 1 mM after 30 mins by MALDI-TOF MS; assay type: physicochemical; details: isolated protein, 0.5 h, 1000 µM
[6] = system: Human immunodeficiency virus 1; assay: Antiviral activity against HIV1 infected in human H9 cells assessed as extracellular release of viral protein p24 at 12.5 uM added to the medium every 2 days measured after 8 days; assay type: functional; details: Human immunodeficiency virus 1, H9
[7] = system: Human immunodeficiency virus 1; assay: Antiviral activity against HIV1 infected in human H9 cells assessed as extracellular release of viral protein p24 at 12.5 uM added to the medium every 2 days; assay type: functional
[8] = system: Human immunodeficiency virus 1; assay: Antiviral activity against HIV1 infected in human H9 cells assessed as extracellular release of viral protein p24 at 12.5 uM after 8 days; assay type: functional, organism-based
[9] = target: Human immunodeficiency virus type 1 integrase (Human immunodeficiency virus 1) (UniProt Q7ZJM1); assay: Inhibition of HIV-1 Integrase; details: concentration not given here

Chain of Human immunodeficiency virus type 1 integrase (Human immunodeficiency virus 1) (Q7ZJM1 as listed by the source): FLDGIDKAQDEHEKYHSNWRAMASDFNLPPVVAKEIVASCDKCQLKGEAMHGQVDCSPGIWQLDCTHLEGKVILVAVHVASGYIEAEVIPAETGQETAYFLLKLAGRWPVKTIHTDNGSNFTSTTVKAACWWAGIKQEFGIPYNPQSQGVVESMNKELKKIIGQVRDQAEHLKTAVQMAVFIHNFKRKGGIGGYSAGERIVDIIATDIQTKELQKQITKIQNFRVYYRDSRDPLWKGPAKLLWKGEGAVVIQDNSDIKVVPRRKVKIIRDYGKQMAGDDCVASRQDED

Row | Molecule | inhibition [1] | Activity [2] | Activity [3] | other results
1 | CC[C@H](C)[C@@H]1NC(=O)[C@H](CCCCN)NC(=O)[C@H](CC(C)C)NC(=O)[C@H](CO)NC(=O)[C@H](CC(N)=O)NC(=O)[C@H](Cc2c[nH]c3ccccc23)NC(=O)CN(C(=O)c2ccccc2-c2c3ccc(=O)cc-3oc3cc(O)ccc23)C(=O)NCCN(CC(N)=O)C(=O)[C@H](C(C)C)NC(=O)[C@H](CC(=O)O)NC(=O)[C@H](CC(C)C)NC(=O)[C@H](CC(N)=O)NC(=O)[C@H](CC(=O)O)NC1=O (WNSLKIDNLDV[N(2-Aminoethyl)Gly]-NH2; linker N-12 via X1) | 51% | 5.2 µM | – | –
2 | CC[C@H](C)[C@@H]1NC(=O)[C@H](CCCCN)NC(=O)[C@H](CC(C)C)NC(=O)[C@H](CO)NC(=O)[C@H](CC(N)=O)NC(=O)[C@H](Cc2c[nH]c3ccccc23)NC(=O)CCN(C(=O)c2ccccc2-c2c3ccc(=O)cc-3oc3cc(O)ccc23)C(=O)NCCN(CC(N)=O)C(=O)[C@H](C(C)C)NC(=O)[C@H](CC(=O)O)NC(=O)[C@H](CC(C)C)NC(=O)[C@H](CC(N)=O)NC(=O)[C@H](CC(=O)O)NC1=O (WNSLKIDNLDV[N(2-Aminoethyl)Gly]-NH2; linker N-12 via X2) | 54% | 6.3 µM | – | –
3 | CC[C@H](C)[C@@H]1NC(=O)[C@H](CCCCN)NC(=O)[C@H](CC(C)C)NC(=O)[C@H](CO)NC(=O)[C@H](CC(N)=O)NC(=O)[C@H](Cc2c[nH]c3ccccc23)NC(=O)CN(C(=O)c2ccccc2-c2c3ccc(=O)cc-3oc3cc(O)ccc23)C(=O)NCCCCCCN(CC(N)=O)C(=O)[C@H](C(C)C)NC(=O)[C@H](CC(=O)O)NC(=O)[C@H](CC(C)C)NC(=O)[C@H](CC(N)=O)NC(=O)[C@H](CC(=O)O)NC1=O (WNSLKIDNLDV[N(6-aminohexyl)Gly]-NH2; linker N-12 via X1) | 48% | 3.3 µM | inactive | –
4 | CC[C@H](C)[C@@H]1NC(=O)[C@H](CCCCN)NC(=O)[C@H](CC(C)C)NC(=O)[C@H](CO)NC(=O)[C@H](CC(N)=O)NC(=O)[C@H](Cc2c[nH]c3ccccc23)NC(=O)CCN(C(=O)c2ccccc2-c2c3ccc(=O)cc-3oc3cc(O)ccc23)C(=O)NCCCCCCN(CC(N)=O)C(=O)[C@H](C(C)C)NC(=O)[C@H](CC(=O)O)NC(=O)[C@H](CC(C)C)NC(=O)[C@H](CC(N)=O)NC(=O)[C@H](CC(=O)O)NC1=O (WNSLKIDNLDV[N(6-aminohexyl)Gly]-NH2; linker N-12 via X2) | 48% | 3.8 µM | – | –
5 | CC[C@H](C)[C@@H]1NC(=O)[C@H](CCCCN)NC(=O)[C@H](CC(C)C)NC(=O)[C@H](CO)NC(=O)[C@H](CC(N)=O)NC(=O)[C@H](Cc2c[nH]c3ccccc23)NC(=O)CN(C(=O)c2ccccc2-c2c3ccc(=O)cc-3oc3cc(O)ccc23)C(=O)NCCCN(CC(N)=O)C(=O)[C@H](C(C)C)NC(=O)[C@H](CC(=O)O)NC(=O)[C@H](CC(C)C)NC(=O)[C@H](CC(N)=O)NC(=O)[C@H](CC(=O)O)NC1=O (WNSLKIDNLDV[NGly(3-aminopropyl)]-NH2; linker N-12 via X1) | 44% | 6.5 µM | – | –
6 | CC[C@H](C)[C@@H]1NC(=O)[C@H](CCCCN)NC(=O)[C@H](CC(C)C)NC(=O)[C@H](CO)NC(=O)[C@H](CC(N)=O)NC(=O)[C@H](Cc2c[nH]c3ccccc23)NC(=O)CCN(C(=O)c2ccccc2-c2c3ccc(=O)cc-3oc3cc(O)ccc23)C(=O)NCCCN(CC(N)=O)C(=O)[C@H](C(C)C)NC(=O)[C@H](CC(=O)O)NC(=O)[C@H](CC(C)C)NC(=O)[C@H](CC(N)=O)NC(=O)[C@H](CC(=O)O)NC1=O (WNSLKIDNLDV[NGly(3-aminopropyl)]-NH2; linker N-12 via X2) | 19% | 4 µM | – | –
7 | CC[C@H](C)[C@@H]1NC(=O)[C@H](CCCCN)NC(=O)[C@H](CC(C)C)NC(=O)[C@H](CO)NC(=O)[C@H](CC(N)=O)NC(=O)[C@H](Cc2c[nH]c3ccccc23)NC(=O)CN(C(=O)c2ccccc2-c2c3ccc(=O)cc-3oc3cc(O)ccc23)C(=O)NCCCCN(CC(N)=O)C(=O)[C@H](C(C)C)NC(=O)[C@H](CC(=O)O)NC(=O)[C@H](CC(C)C)NC(=O)[C@H](CC(N)=O)NC(=O)[C@H](CC(=O)O)NC1=O (WNSLKIDNLDV[Nlys]-NH2; linker N-12 via X1) | 90% | 5 µM | Dose-dependent effect | Stability [4]: Unstable; Stability [5]: Stable; inhibition at 12.5 µM [6]: > 90%; inhibition at 12.5 µM ([7]; Human immunodeficiency virus 1, H9, 48 h): 80%
8 | CC[C@H](C)[C@@H]1NC(=O)[C@H](CCCCN)NC(=O)[C@H](CC(C)C)NC(=O)[C@H](CO)NC(=O)[C@H](CC(N)=O)NC(=O)[C@H](Cc2c[nH]c3ccccc23)NC(=O)CCN(C(=O)c2ccccc2-c2c3ccc(=O)cc-3oc3cc(O)ccc23)C(=O)NCCCCN(CC(N)=O)C(=O)[C@H](C(C)C)NC(=O)[C@H](CC(=O)O)NC(=O)[C@H](CC(C)C)NC(=O)[C@H](CC(N)=O)NC(=O)[C@H](CC(=O)O)NC1=O (WNSLKIDNLDV[Nlys]-NH2; linker N-12 via X2) | 65% | 3.1 µM | – | –
9 | H-WNSLKIDNLDV-OH | 83% | 5.1 µM | Dose-dependent effect | Activity [8]: inactive; inhibition [9]: 85%; Stability [5]: Unstable; Activity [7]: Active
